In paper PMC7000521, “Hazard Characterization of Synthetic Cathinones Using Viability, Monoamine Reuptake, and Neuronal Activity Assays” (Frontiers in Neuroscience, 2020):
Where two headings read alike, the source gives them in different places. Marks after values point to notes of the source that are not given here.

What was measured:
[1] = system: rat primary cortical cultures; assay: MEA recordings of spontaneous neuronal network activity; type: cell-based; conditions: for IC50: value [CI]
Procedure: Rat pups born of timed-pregnant Wistar rats (Envigo, Horst, Netherlands) were sacrificed on postnatal day 0–1 to prepare cortical cultures grown on MEA plates as described previously ([Zwartsen et al., 2018], [2019]). Briefly, a 50 μL drop of cell suspension was added to each well (1 × 10^5 cells/well) of a 48-well MEA plate (Axion BioSystems Inc., Atlanta, GA, United States, M768-GL1-30Pt200) coated with 0.1% polyethyleneimine (PEI). After 2 h, 450 μL dissection medium was added to each well. The day after the isolation (day in vitro 1; DIV1), 450 μL/well dissection medium was replaced with 450 μL/well glutamate medium. At DIV4, 450 μL/well glutamate medium was replaced with 450 μL/well FBS medium (for medium supplements see [Zwartsen et al., 2018], [2019]). Cultures were kept in FBS medium at 37°C, 5% CO2/95% air atmosphere until use at DIV9-10.
Microelectrode array recordings were performed as described in [Zwartsen et al. (2019)]. In short, neuronal activity was measured using a Maestro 768-channel amplifier (Axion BioSystems Inc., Atlanta, GA, United States). Baseline spontaneous neuronal activity was recorded for 30 min at 37°C, after which wells were exposed to selected synthetic cathinones under sterile conditions. Next, neuronal activity was determined during a 30 min “acute exposure” recording. […] Next, exposure medium was replaced with fresh FBS medium and the plate was incubated for 19 h at 37°C, until the 30 min “washout” recording, i.e., 24 h after the start of the exposure.
Effects of 3-MMC, 4-MMC, 4-MEC, pentedrone, 3-MMCinternet, and 4-MECinternet were tested at 1–1000 μM (final concentration). At the day of exposure, stocks and dilutions were freshly made in NB-A FBS medium (for medium supplements see [Zwartsen et al., 2019]). Data on methylone, α-PVP, and MDPV exposure have been published previously in [Zwartsen et al. (2019)]. For each experimental condition, primary cultures from two to three different isolations were used and tested in four to five plates (Nplates). The number of wells (nwells) represents the number of replicates per condition.
Microelectrode array data were analyzed as described in [Zwartsen et al. (2019)]. In short, parameters of interest after acute exposure were expressed as a percentage of the parameters prior to exposure to obtain a treatment ratio for each well (paired comparison; parameterexposure/parameterbaseline as % of control wells). The parameters after prolonged exposure and washout were also expressed as a percentage of the baseline parameters. Next, treatment ratios were grouped per parameter, condition, drug [e.g., mean spike rate (MSR) 10 μM 3-MMC] and exposure scenario (acute, prolonged, or washout).
Outliers (>mean ± 2×SD) for MSR (5.0%) were used to exclude wells on all parameters. Outliers for mean burst rate (MBR; 2.6%) and mean network burst rate (MNBR; 1.4%) were used to exclude wells on specific parameters (burst, network burst, and synchronicity parameters, or network burst and synchronicity parameters, respectively). Finally, the acute, prolonged, and washout control treatment ratios were set to 100% and treatment ratios of exposed wells were normalized to the average treatment ratio of medium control wells of the corresponding parameter and exposure scenario. Treatment ratios of exposed wells were averaged per parameter (e.g., MSR), condition (e.g., 100 μM), drug (e.g., methylone), and exposure scenario (e.g., acute exposure) and used for further statistical analyses [see [Zwartsen et al. (2019)] for more details on criteria, parameters, and exposure scenarios]. Neuronal activity (as % of control) is expressed as mean ± SEM of nwells from Nplates. As the spike, burst, and network burst rates were among the most sensitive parameters, these parameters are presented in the manuscript. Additional parameters are presented in Supplementary Figure 2.
Concentration–response curves were made for transporter, MEA, and cell viability assays. […]

[2] = Brain partitioning factor (BPF); conditions: brain concentration divided by blood/serum/plasma concentration from human post mortem reports or animal studies (rat/mice)
Source text: (§1) To correlate reported effect concentrations to expected concentrations in the human brain during recreational use a brain partitioning factor (BPF; […]) was applied, as actual human brain concentrations following recreational drug use are unknown. Expected concentrations in the human brain were estimated by multiplying recreational human blood/serum/plasma concentrations with the BPF. Human recreational blood, serum, or plasma levels were obtained from literature (driving under the influence or accidental non-fatal intoxications). The BPF was determined for each drug by dividing the brain concentration by the blood/serum/plasma concentration found in human post mortem reports, or animal studies (rat/mice) when human data were insufficient.

[3] = Estimated human brain concentrations and comparison with IC50 values; conditions: recreational human blood/serum/plasma concentration multiplied with BPF
Source text: as §1
To identify the relevance of effects and potentially harmful drugs, effect concentrations (IC50 values) were related to the estimated human brain concentration during recreational use [(brain), Table 2]. By comparing these concentrations, the most relevant neurotoxic mechanisms of cathinones can be identified. […] Only 4-MEC and MDPV inhibited neuronal activity during acute exposure at concentrations within (MDPV) or close to (4-MEC) the estimated brain concentration.

[4] = target: T1, hDAT (Homo sapiens, UniProt Q01959); parameters: method as in Zwartsen et al., 2017; conditions: read-out: Transporter inhibition IC50, hDAT; HEK 293 cells; value [CI]; reanalyzed from previously published data ref Zwartsen et al., 2017; cited from earlier work
T1 construct: expressed in transfected cells
T1 sequence (Q01959 whole entry): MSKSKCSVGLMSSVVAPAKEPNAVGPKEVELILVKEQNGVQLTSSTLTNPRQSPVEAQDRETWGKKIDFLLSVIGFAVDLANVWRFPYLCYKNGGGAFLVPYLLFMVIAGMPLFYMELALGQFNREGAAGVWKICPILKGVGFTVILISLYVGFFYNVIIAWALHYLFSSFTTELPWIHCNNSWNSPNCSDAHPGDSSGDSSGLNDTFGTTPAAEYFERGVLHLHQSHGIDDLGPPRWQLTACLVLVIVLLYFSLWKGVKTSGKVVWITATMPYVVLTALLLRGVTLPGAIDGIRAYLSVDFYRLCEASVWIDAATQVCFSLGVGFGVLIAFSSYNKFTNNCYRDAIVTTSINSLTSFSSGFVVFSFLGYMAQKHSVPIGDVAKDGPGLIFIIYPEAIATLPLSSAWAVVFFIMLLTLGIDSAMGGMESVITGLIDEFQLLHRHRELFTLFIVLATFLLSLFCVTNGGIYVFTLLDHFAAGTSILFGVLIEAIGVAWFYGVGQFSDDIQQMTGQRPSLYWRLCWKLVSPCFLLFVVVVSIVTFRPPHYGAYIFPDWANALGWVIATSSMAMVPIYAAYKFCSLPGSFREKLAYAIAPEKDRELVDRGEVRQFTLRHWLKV

[5] = system: rat primary cortical cultures; parameters: method as in Zwartsen et al., 2019; conditions: 2019, cited from earlier work; for IC50: value [CI], published previously ref Zwartsen et al.
[6] = recreational use (driving under the influence or accidental non-fatal intoxications); ref literature; cited from earlier work
[7] = target: T1, hDAT; assay: Monoamine uptake assay (fluorescent substrate), hDAT; type: cell-based
Procedure: (§2) Human embryonic kidney (HEK) 293 cells stably expressing human DAT, NET, or SERT (kindly provided by Dr. Hoener from F. Hoffmann-La Roche Ltd., Basel, Switzerland) were cultured as described in [Zwartsen et al. (2017)].
(§3) Uptake activity of hNET, hDAT, and hSERT was measured using the Neurotransmitter Transporter Uptake Assay Kit from MDS Analytical Technologies (Sunnyvale, CA, United States) as described in detail previously ([Zwartsen et al., 2017]). The kit contained a mixture consisting of a fluorescent substrate, which resembles the biogenic amine neurotransmitters, and a masking dye that extinguishes extracellular fluorescence. Uptake of the fluorescent substrate, a measure of neurotransmitter transporter function, increases intracellular fluorescence, while extracellular fluorescence is blocked by the masking dye ([Jorgensen et al., 2008]). The mixture was dissolved in Hank’s Balanced Salt Solution (1×) (HBSS) with 20 mM HEPES, and kept up to 1 week at −20°C.
On day 0, HEK 293 cells were seeded (60,000 cells/well) in clear-bottom black-walled 96-well plates coated with poly-L-lysine (PLL, 50 mg/L). On day 1, cells were pre-incubated with the fluorescent substrate mixture (95 μL/well, comprising of the fluorescent substrate and the extracellular masking dye, dissolved in HBSS) for 12 min (t = −12 to t = 0). During incubation, intracellular fluorescence was measured every 3 min. […] Stock solutions and dilutions were freshly prepared in HBSS (1×) at the day of usage. Effects of 3-MMC, 4-MMC, 4-MEC, methylone, pentedrone, MDPV, 3-MMCinternet, and 4-MECinternet were measured at final concentrations of 0.03–300/1000 μM. Fluorescence was measured with a microplate reader (Tecan Infinite M200 microplate; Tecan Trading Männedorf, Switzerland) at 37°C at 430/515 nm excitation/emission wavelength. For more experimental detail see [Zwartsen et al. (2017)].
Data from the monoamine uptake assay were analyzed as described by [Zwartsen et al. (2017)], with minor modifications. Data for α-PVP were reanalyzed from [Zwartsen et al. (2017)]. In short, the fluorescence of each well was background corrected and uptake was determined per well by calculating the change in fluorescence (ΔFU) at 12 min after drug exposure (t = 12) compared to the fluorescence at the start of exposure (t = 0), as a percentage of the fluorescence at the start of exposure (%ΔFU = ((FUt = 12−FUt = 0)/FUt = 0)∗100%; see [Zwartsen et al., 2017]). Plate-matched control values for each compound (e.g., methylone) above or below two times the standard deviation of the average normalized control value were considered outliers and were removed from analysis (4.8%). Thereafter, uptake in drug-exposed wells was expressed as a percentage of control wells on the same plate and all uptake values were scaled between 0 and 100%. Outliers (>mean ± 2×SD) in exposed groups were removed (2.7%) and uptake (% compared to control) was expressed as mean ± SEM of nwells from Nplates.
Concentration–response curves were made for transporter, MEA, and cell viability assays. To calculate IC50 values, a four-parameter logistic curve with a variable slope was used (Y = Bottom + (Top−Bottom)/(1 + 10∧((LogIC50 − X) ^∗ HillSlo pe))) (GraphPad Prism, version 7.04). When applicable, significance between concentrations and controls (for MEA) and different IC50 values [between different transporters (DAT/NET/SERT), MEA parameters (MSR/MBR/MNBR), exposure settings (acute/prolonged/recovery), and drug grade (pharmaceutical/internet)] were determined using unpaired t-tests (two values) or one-way ANOVA’s followed by a post hoc Dunnet’s test (>2 values). All statistical tests were performed using GraphPad Prism. For recovery of neuronal activity, IC50 values and 95% confidence intervals could not always be determined and are reported as higher than the highest concentration tested (e.g., >1000 μM). […]

[8] = target: T2, hNET (Homo sapiens, UniProt P23975); assay: Monoamine uptake assay (fluorescent substrate), hNET; type: cell-based
T2 construct: expressed in transfected cells
T2 sequence (P23975 whole entry): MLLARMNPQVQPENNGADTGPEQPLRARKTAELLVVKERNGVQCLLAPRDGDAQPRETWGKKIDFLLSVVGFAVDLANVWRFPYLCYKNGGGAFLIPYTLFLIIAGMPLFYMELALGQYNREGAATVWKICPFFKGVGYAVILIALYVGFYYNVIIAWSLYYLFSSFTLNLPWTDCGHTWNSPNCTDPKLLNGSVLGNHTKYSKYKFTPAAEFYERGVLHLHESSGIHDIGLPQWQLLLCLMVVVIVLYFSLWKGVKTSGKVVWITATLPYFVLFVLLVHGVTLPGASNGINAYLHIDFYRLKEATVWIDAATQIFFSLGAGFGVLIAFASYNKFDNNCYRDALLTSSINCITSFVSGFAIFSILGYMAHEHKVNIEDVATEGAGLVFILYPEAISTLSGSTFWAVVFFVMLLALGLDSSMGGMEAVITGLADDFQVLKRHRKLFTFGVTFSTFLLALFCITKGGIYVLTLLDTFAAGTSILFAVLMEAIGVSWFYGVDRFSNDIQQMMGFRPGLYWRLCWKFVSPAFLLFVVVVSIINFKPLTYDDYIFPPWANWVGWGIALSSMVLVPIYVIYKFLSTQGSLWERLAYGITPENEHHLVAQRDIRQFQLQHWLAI
Procedure: as §2
as §3, with “The mixture was dissolved in Hank’s Balanced Salt Solution (1×) (HBSS) with 20 mM HEPES, and kept up to 1 week at −20°C.” left out
On day 0, HEK 293 cells were seeded (60,000 cells/well) in clear-bottom black-walled 96-well plates coated with poly-L-lysine (PLL, 50 mg/L). […] During incubation, intracellular fluorescence was measured every 3 min. […] Effects of 3-MMC, 4-MMC, 4-MEC, methylone, pentedrone, MDPV, 3-MMCinternet, and 4-MECinternet were measured at final concentrations of 0.03–300/1000 μM. Fluorescence was measured with a microplate reader (Tecan Infinite M200 microplate; Tecan Trading Männedorf, Switzerland) at 37°C at 430/515 nm excitation/emission wavelength. […]

[9] = target: T3, hSERT (Homo sapiens, UniProt P31645); conditions: cited from earlier work
T3 construct: expressed in transfected cells
T3 sequence (P31645 whole entry): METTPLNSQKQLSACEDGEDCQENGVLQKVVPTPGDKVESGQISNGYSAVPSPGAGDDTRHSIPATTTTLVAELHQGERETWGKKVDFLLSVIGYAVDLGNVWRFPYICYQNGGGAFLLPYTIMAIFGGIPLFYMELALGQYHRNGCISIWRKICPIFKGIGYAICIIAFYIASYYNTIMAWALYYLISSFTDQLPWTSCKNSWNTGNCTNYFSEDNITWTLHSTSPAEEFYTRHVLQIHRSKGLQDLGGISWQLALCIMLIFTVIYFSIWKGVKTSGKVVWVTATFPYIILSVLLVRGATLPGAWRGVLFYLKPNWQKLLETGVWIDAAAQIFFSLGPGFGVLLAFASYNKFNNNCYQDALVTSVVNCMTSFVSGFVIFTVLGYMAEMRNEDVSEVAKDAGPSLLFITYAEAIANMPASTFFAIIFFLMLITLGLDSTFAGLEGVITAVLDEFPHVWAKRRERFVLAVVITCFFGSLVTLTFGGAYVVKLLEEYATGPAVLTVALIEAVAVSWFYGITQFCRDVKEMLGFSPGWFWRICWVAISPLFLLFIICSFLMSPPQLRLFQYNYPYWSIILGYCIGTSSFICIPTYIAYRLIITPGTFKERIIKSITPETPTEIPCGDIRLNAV

[10] = acute exposure 30 min, read-out: Neuronal activity IC50, mean burst rate (MBR), acute
[11] = acute exposure 30 min, read-out: Neuronal activity IC50, mean network burst rate (MNBR), acute
[12] = acute exposure 30 min, read-out: Neuronal activity IC50, mean spike rate (MSR), acute
[13] = washout, 24 h after start of exposure, read-out: Neuronal activity IC50, mean burst rate (MBR), recovery
[14] = washout, 24 h after start of exposure, read-out: Neuronal activity IC50, mean network burst rate (MNBR), recovery
[15] = washout, 24 h after start of exposure, read-out: Neuronal activity IC50, mean spike rate (MSR), recovery
[16] = 19 h washout, 24 h after start of exposure, read-out: Neuronal activity IC50, mean burst rate (MBR), recovery
[17] = 19 h washout, 24 h after start of exposure, read-out: Neuronal activity IC50, mean network burst rate (MNBR), recovery

Row | Structure (SMILES) | Brain partitioning factor (BPF) [2] | Estimated human (brain) concentration [3] [µM] | IC50 [5, 10] [µM] | IC50 [5, 11] [µM] | IC50 [5, 12] [µM] | IC50 [5, 13] [µM] | IC50 [5, 14] [µM] | IC50 [5, 15] [µM] | Human (serum/blood/plasma) concentration [6] | IC50 [1, 16] [µM] | IC50 [1, 17] [µM] | IC50 [1, 11] [µM] | further results
1 | CCCC(C(=O)c1ccccc1)N1CCCC1 (stereo not drawn) [α-PVP, α-pyrrolidinovalerophenone] | 0.1–1.8^4,8,9,10 | 0.001 to 5.0 | 33 | 33 | 26 | > 300 | > 300 | > 300 | 0.01–2.8^b,j,K μM |  |  |  | Increased potency to inhibit neuronal activity (MSR, MBR, and MNBR) compared to cathinones lacking the lengthened alkyl chain ([1]; acute and prolonged exposure): two to fourfold; IC50 [4]: 0.2 µM
2 | CNC(C)C(=O)c1cccc(C)c1 (stereo not drawn) [3-MMCinternet] |  |  |  |  |  |  |  |  |  | > 1000 | > 1000 | 57 | 
3 | CCNC(C)C(=O)c1ccc(C)cc1 (stereo not drawn) [4-MECinternet] |  |  |  |  |  |  |  |  |  | > 1000 | > 1000 | 79 | IC50 ([7]; HEK 293 cells, 37°C, uptake at 12 min after drug exposure, value [CI], read-out: Transporter inhibition IC50, hDAT): 1.7 µM; IC50 [1, 10]: 79 µM; IC50 [1, 12]: 70 µM
4 | CNC(C)C(=O)c1ccc2c(c1)OCO2 (stereo not drawn) [Methylone, 1-(1,3-benzodioxol-5-yl)-2-(methylamino)propan-1-one] | 1.4–4.5^5,^–6,^7 | 0.01 to 81 | 266 | 323 | 244 | > 1000 | > 1000 | > 1000 | 0.01–18^a,d,g,h μM |  |  |  | IC50 [7]: 2 µM; IC50 [8]: 1.7 µM; Reduction of potency to inhibit neuronal activity compared to MDMA ([5]; methylone versus MDMA, ref Zwartsen et al.): threefold; IC50 ([5]; prolonged exposure 4.5 h, read-out: Neuronal activity IC50, mean burst rate (MBR), prolonged): 322 µM; IC50 ([5]; prolonged exposure 4.5 h, read-out: Neuronal activity IC50, mean network burst rate (MNBR), prolonged): 362 µM; IC50 ([5]; prolonged exposure 4.5 h, read-out: Neuronal activity IC50, mean spike rate (MSR), prolonged): 283 µM
5 | CNC(C)Cc1ccc2c(c1)OCO2 (stereo not drawn) [MDMA, 3,4-methylenedioxymethamphetamine] |  |  |  |  |  |  |  |  |  |  |  |  | Increase in potency to inhibit hSERT [9]: threefold
